Data from ChEMBL document CHEMBL3046894, “Synthesis and Herbicidal Activity of Pyrimidinyl Salicylic and Thiosalicylic Acids” (J Pestic Sci, 1996).
The source made the active and inactive calls. The calls are words filed in the database; no cut-off is given here.

Experiments:
Type in all cases: functional, organism-based
[1] = tested on: Digitaria sanguinalis; test: Pre-emergence herbicidal activity against Digitaria sanguinalis (hairy crabgrass) assessed as growth inhibition at 25 g a.i/10 a
[2] = tested on: Persicaria nodosa; test: Pre-emergence herbicidal activity against Persicaria nodosa assessed as growth inhibition at 25 g a.i/10 a
[3] = tested on: Persicaria nodosa; test: Post-emergence herbicidal activity against Persicaria nodosa assessed as growth inhibition at 25 g a.i/10 a applied 11 days after germination as foliar spray
[4] = tested on: Cyperus iria; test: Post-emergence herbicidal activity against Cyperus iria assessed as growth inhibition at 25 g a.i/10 a applied 11 days after germination as foliar spray
[5] = tested on: Echinochloa crus-galli; test: Post-emergence herbicidal activity against Echinochloa crus-galli (barnyard grass) assessed as growth inhibition at 25 g a.i/10 a applied 11 days after germination as foliar spray
[6] = tested on: Chenopodium album; test: Pre-emergence herbicidal activity against Chenopodium album assessed as growth inhibition at 25 g a.i/10 a
[7] = tested on: Chenopodium album; test: Post-emergence herbicidal activity against Chenopodium album assessed as growth inhibition at 25 g a.i/10 a applied 11 days after germination as foliar spray
[8] = tested on: Amaranthus retroflexus; test: Post-emergence herbicidal activity against Amaranthus retroflexus assessed as growth inhibition at 25 g a.i/10 a applied 11 days after germination as foliar spray
[9] = tested on: Digitaria sanguinalis; test: Post-emergence herbicidal activity against Digitaria sanguinalis (hairy crabgrass) assessed as growth inhibition at 25 g a.i/10 a applied 11 days after germination as foliar spray
[10] = tested on: Cyperus iria; test: Pre-emergence herbicidal activity against Cyperus iria assessed as growth inhibition at 25 g a.i/10 a
[11] = tested on: Amaranthus retroflexus; test: Pre-emergence herbicidal activity against Amaranthus retroflexus assessed as growth inhibition at 25 g a.i/10 a
[12] = tested on: Echinochloa crus-galli; test: Pre-emergence herbicidal activity against Echinochloa crus-galli (barnyard grass) assessed as growth inhibition at 25 g a.i/10 a

| Compound | growth inhibition (GI) [1] | growth inhibition (GI) [2] | growth inhibition (GI) [3] | growth inhibition (GI) [4] | growth inhibition (GI) [5] | growth inhibition (GI) [6] | growth inhibition (GI) [7] | growth inhibition (GI) [8] | growth inhibition (GI) [9] | growth inhibition (GI) [10] | growth inhibition (GI) [11] | growth inhibition (GI) [12] |
| --- | --- | --- | --- | --- | --- | --- | --- | --- | --- | --- | --- | --- |
| COc1cc(OC)nc(Oc2ccc(Br)cc2C(=O)O)n1 | inactive | inactive | inactive | inactive | inactive | inactive | inactive | inactive | inactive | inactive | inactive | inactive |
| COc1cc(OC)nc([S+]([O-])c2cccc(Cl)c2C(=O)O)n1 (configuration not stated) | Active | inactive | Active | Active | Active | Active | Active | Active | inactive | Active | Active | inactive |
| COc1cc(OC)nc(Oc2c(C)cccc2C(=O)O)n1 | inactive | inactive | Active | Active | inactive | Active | inactive | Active | inactive | Active | Active | Active |
| COc1cc(OC)nc(Oc2cc(N)ccc2C(=O)O)n1 | inactive | inactive | Active | Active | inactive | inactive | Active | Active | inactive | inactive | inactive | inactive |
| COc1cc(OC)nc(Oc2cccc(-c3ccccc3)c2C(=O)O)n1 | Active | Active | Active | Active | Active | Active | Active | Active | Active | Active | Active | Active |
| COc1cc(OC)nc(Oc2cccc(C(C)=O)c2C(=O)O)n1 | Active | Active | Active | Active | Active | Active | Active | Active | Active | Active | Active | Active |
| CCCc1cccc(Oc2nc(OC)cc(OC)n2)c1C(=O)O | Active | Active | Active | Active | Active | Active | Active | Active | Active | Active | Active | Active |
| COc1cc(OC)nc(Oc2c(F)cccc2C(=O)O)n1 | Active | Active | Active | Active | Active | Active | Active | Active | inactive | Active | Active | Active |
| COc1cc(OC)nc(Oc2ccc(Cl)cc2C(=O)O)n1 | inactive | inactive | inactive | Active | inactive | Active | Active | Active | inactive | inactive | Active | inactive |
| COc1cc(OC)nc(Oc2ccc(F)cc2C(=O)O)n1 | Active | Active | Active | Active | Active | Active | Active | Active | inactive | Active | Active | Active |
| COc1cc(OC)nc(Oc2cccc(-n3cccc3)c2C(=O)O)n1 | Active | Active | Active | Active | Active | Active | Active | Active | Active | Active | Active | Active |
